Counter-ions that a name gives are not always drawn.
Columns and labels:
[1] = animal studies of the three salts vs Ketoprofen acid and Ketoprofen sodium salt: distribution and kinetics; type: in vivo, experimental animals
Source text: The three above mentioned Ketoprofen salts were compared with Ketoprofen acid and Ketoprofen sodium salt in animal studies.

prostaglandin E2 (PGE2) = experiment: foreign body (sponge) method in the rat: PGE2 in the inflammatory exudate (immunoenzymatic assay); type: in vivo; details: for PGE2 concentration in the inflammatory exudate / % inhibition versus controls of PGE2: oral, 8 hours, listed as KGS; for PGE2 concentration in the inflammatory exudate: mean, controls 98.7 ± 4.7
Description: (§1) These tests involved the use of 100 male CD strain rats (Charles River, Calco, LC, Italy) weighing 180±8 g. The animals were fasted for 12 hours (water ad libitum) before being used for the experiment.
(§2) The inflammatory reaction with the formation of exudate was induced by using sterilized polyester sponges (4×1.5×0.5 cm) soaked in carrageen dissolved at a 2% concentration in sterile physiological solution. The rats were anesthetized lightly with ether and two sponges per rat were implanted subcutaneously in a previously shaven dorsal area.
(§3) The sponges were removed 8 hours later after having sacrificed the animals by ether euthanasia, and immediately placed in large polyethylene 50 ml test tubes containing 10 ml of heparinized physiological solution. The test tubes were then subjected to centrifugation (1000 rotations; 15 minutes), followed by removal of the sponges and accurate measurement of the volume of the remaining fluid. Always using the Higgs et al. method, the acid lipids present in the fluid were extracted in chloroform with prior dilution in ethanol and acidification to pH 3. After complete evaporation of the chloroform, the remaining dry residue was dissolved in physiological solution and used for the immunoenzymatic assay of prostaglandin E2 (PGE2).
(§4) All the other reagents used for the tests were purchased from Merck-Bracco (Milan, Italy).

[2] = system: inflammatory exudate (IE); experiment: foreign body (sponge) method in the rat: inflammatory exudate volume; type: in vivo; details: for IE (inflammatory exudate) volume / % inhibition versus controls of IE: oral, 8 hours, listed as KGS; for IE (inflammatory exudate) volume: mean ± MSE, controls 5.15 ± 0.28
Description: as §1, §2, §3, §4

carrageen edema = carrageen edema test in the rat (hind paw volume, plethysmometer); details: for evolution of paw volume (delta in ml) at 1st hour / evolution of paw volume (delta in ml) at 2nd hour / evolution of paw volume (delta in ml) at 3rd hour / evolution of paw volume (delta in ml) at 4th hour / evolution of paw volume (delta in ml) at 5th hour / evolution of paw volume (delta in ml) at 6th hour: mean ± MSE; for % inhibition vs controls (paw edema AUC): p < 0.001; for AUC (mean ± MSE) of increase in paw volume: paw volume (delta in ml) vs time (0 to 6 hours), controls 4.23 ± 0.26
[3] = rat, 0.5, 1, 2 and 4 mg/kg per os
[4] = rat, oral, 1 mg/kg, listed as KGS
[5] = rat, oral, 2 mg/kg, listed as KGS

For `CC(C(=O)O)c1cccc(C(=O)c2ccccc2)c1` (stereo not shown) [Ketoprofen Glucosamine salt], the “active substance concentration in the inflamed site” value ([1]; injection, vs Ketoprofen sodium salt) was “much greater than that observed with Ketoprofen sodium salt”, the “kinetic parameters after oral administration” value ([1]; oral, vs Ketoprofen acid and Ketoprofen sodium salt) was “significantly different” and the ED50 (prostaglandin E2 (PGE2); Rattus norvegicus, po, 8 h, rat, 95% confidence limits KGS 1.848-2.131, KLS 2.215-3.005) was 1.99 mg/kg. The “inhibition of PGE2 activity in exudates” value (prostaglandin E2 (PGE2); [3]) was “singificant inhibition of PGE2 activity”, the “PGE2 concentration in the inflammatory exudate” value (shortened to “PGE2 concentration”) (prostaglandin E2 (PGE2); rat, 0.5 mg/kg) was 67.6 ng/mL and the “% inhibition versus controls of PGE2” value (prostaglandin E2 (PGE2); rat, 0.5 mg/kg) was 31.5%. For the same molecule, the “PGE2 concentration” value (prostaglandin E2 (PGE2); rat, 1 mg/kg) was 60.5 ng/mL, the “% inhibition versus controls of PGE2” value (prostaglandin E2 (PGE2); rat, 1 mg/kg) was 38.7% and the “PGE2 concentration” value (prostaglandin E2 (PGE2); rat, 2 mg/kg) was 49.9 ng/mL. The “% inhibition versus controls of PGE2” value (prostaglandin E2 (PGE2); rat, 2 mg/kg) was 49.4%, the “PGE2 concentration” value (prostaglandin E2 (PGE2); rat, 4 mg/kg) was 24.9 ng/mL and the “% inhibition versus controls of PGE2” value (prostaglandin E2 (PGE2); rat, 4 mg/kg) was 74.8%. For the same molecule, the ED50 ([2]; Rattus norvegicus, po, 8 h, rat, 95% confidence limits KGS 1.802-2.381, KLS 2.334-3.094) was 2.09 mg/kg, the “control of the inflammatory response to sponge implantation” value [2, 3] was “controls the vasculo-exudative inflammatory response in a dose dependent manner” and the “IE (inflammatory exudate) volume” value ([2]; rat, 0.5 mg/kg) was 3.87 ± 0.27 mL. For the same molecule, the “% inhibition versus controls of IE” value ([2]; rat, 0.5 mg/kg) was 24.8%, the “IE (inflammatory exudate) volume” value ([2]; rat, 1 mg/kg) was 3.56 ± 0.28 mL and the “% inhibition versus controls of IE” value ([2]; rat, 1 mg/kg) was 30.9%. For the same molecule, the “IE (inflammatory exudate) volume” value ([2]; rat, 2 mg/kg) was 2.53 ± 0.22 mL, the “% inhibition versus controls of IE” value ([2]; rat, 2 mg/kg) was 50.9% and the “IE (inflammatory exudate) volume” value ([2]; rat, 4 mg/kg) was 1.05 ± 0.09 mL. For the same molecule, the “% inhibition versus controls of IE” value ([2]; rat, 4 mg/kg) was 79.6%, the ED50 (carrageen edema; Rattus norvegicus, po, read-out: oral ED50 (carrageen edema, extrapolated from AUC), rat, oral, 95% conf. lim. KGS 0.733-1.474, KLS 1.198-1.567) was 1.1 mg/kg and the “anti-inflammatory / anti-edematogenic effect” value (carrageen edema; rat, oral) was “dose-dependent”. For the same molecule, the “anti-inflammatory activity compared with Ketoprofen Lysine salt” value (carrageen edema; rat, oral 0.5, 1 and 2 mg/kg) was “comparable”, the “evolution of paw volume (delta in ml) at 1st hour” value (carrageen edema; rat, oral, 0.5 mg/kg, controls 0.40 ± 0.02, listed as KGS) was 0.28 ± 0.02 mL and the “evolution of paw volume (delta in ml) at 2nd hour” value (carrageen edema; rat, oral, 0.5 mg/kg, controls 0.71 ± 0.02, listed as KGS) was 0.51 ± 0.03 mL. The “evolution of paw volume (delta in ml) at 3rd hour” value (carrageen edema; rat, oral, 0.5 mg/kg, controls 0.87 ± 0.03, listed as KGS) was 0.62 ± 0.04 mL, the “evolution of paw volume (delta in ml) at 4th hour” value (carrageen edema; rat, oral, 0.5 mg/kg, controls 0.93 ± 0.03, listed as KGS) was 0.65 ± 0.04 mL and the “evolution of paw volume (delta in ml) at 5th hour” value (carrageen edema; rat, oral, 0.5 mg/kg, controls 0.90 ± 0.04, listed as KGS) was 0.62 ± 0.05 mL. For the same molecule, the “evolution of paw volume (delta in ml) at 6th hour” value (carrageen edema; rat, oral, 0.5 mg/kg, controls 0.84 ± 0.04, listed as KGS) was 0.56 ± 0.05 mL, the “% inhibition vs controls (paw edema AUC)” value (carrageen edema; rat, oral, 0.5 mg/kg) was 30% and the “% inhibition vs controls (paw edema AUC)” value (carrageen edema; rat, oral, 0.5 mg/kg, listed as KGS) was 30.0%. For the same molecule, the “AUC (mean ± MSE) of increase in paw volume” value (shortened to “AUC (mean ± MSE) of increase”) (carrageen edema; rat, oral, 0.5 mg/kg, listed as KGS, 0.5 mg/kg) was 2.96 ± 0.15, the “evolution of paw volume (delta in ml) at 1st hour” value (carrageen edema; [4]) was 0.23 ± 0.01 mL and the “evolution of paw volume (delta in ml) at 2nd hour” value (carrageen edema; [4]) was 0.39 ± 0.02 mL. The “evolution of paw volume (delta in ml) at 3rd hour” value (carrageen edema; [4]) was 0.46 ± 0.02 mL, the “evolution of paw volume (delta in ml) at 4th hour” value (carrageen edema; [4]) was 0.48 ± 0.02 mL and the “evolution of paw volume (delta in ml) at 5th hour” value (carrageen edema; [4]) was 0.45 ± 0.02 mL. For the same molecule, the “evolution of paw volume (delta in ml) at 6th hour” value (carrageen edema; [4]) was 0.39 ± 0.03 mL, the “% inhibition vs controls (paw edema AUC)” value (carrageen edema; rat, oral, 1 mg/kg) was 48% and the “% inhibition vs controls (paw edema AUC)” value (carrageen edema; [4]) was 48.0%. The “AUC (mean ± MSE) of increase” value (carrageen edema; rat, oral, 1 mg/kg, listed as KGS, 1 mg/kg) was 2.20 ± 0.13, the “evolution of paw volume (delta in ml) at 1st hour” value (carrageen edema; [5]) was 0.11 ± 0.02 mL and the “evolution of paw volume (delta in ml) at 2nd hour” value (carrageen edema; [5]) was 0.20 ± 0.02 mL. The “evolution of paw volume (delta in ml) at 3rd hour” value (carrageen edema; [5]) was 0.26 ± 0.03 mL, the “evolution of paw volume (delta in ml) at 4th hour” value (carrageen edema; [5]) was 0.28 ± 0.03 mL and the “evolution of paw volume (delta in ml) at 5th hour” value (carrageen edema; [5]) was 0.25 ± 0.03 mL. For the same molecule, the “evolution of paw volume (delta in ml) at 6th hour” value (carrageen edema; [5]) was 0.16 ± 0.02 mL, the “% inhibition vs controls (paw edema AUC)” value (carrageen edema; rat, oral, 2 mg/kg) was 72% and the “% inhibition vs controls (paw edema AUC)” value (carrageen edema; [5]) was 72.1%. For the same molecule, the “AUC (mean ± MSE) of increase” value (carrageen edema; rat, oral, 2 mg/kg, listed as KGS, 2 mg/kg) was 1.18 ± 0.06.

Source: US6291527A (priority 1998, dated 2001)
